Results taken from publication PMC5748833, “Synthesis and Biological Evaluation of Novel Hybrid Molecules Containing Purine, Coumarin and Isoxazoline or Isoxazole Moieties” (The Open Medicinal Chemistry Journal, 2017).
Values joined by “and” are separate entries in the source; they are usually repeats but may differ in a detail not shown here. Identical values can stand only once.

Key:
[1] = Inhibition of linoleic acid lipid peroxidation (AAPH); conditions: 100 μM compound, 37°C
Procedure: 2.2.2.3 Inhibition of linoleic acid lipid peroxidation
Production of conjugated diene hydroperoxide by oxidation of linoleic acid sodium salt in an aqueous solution was monitored at 234 nm. 2,2’-Azobis(2-amidinopropane) dihydrochloride (AAPH) was used as a free radical initiator. 10 μl of the 16 mM linoleic acid sodium salt solution was added to the UV cuvette containing 0.93 ml of 0.05 M phosphate buffer, pH 7.4 prethermostated at 37°C. The oxidation reaction was initiated at 37°C under air by the addition of 50 μl of 40 mM AAPH solution. Oxidation was carried out in the presence of 10 μl of the examined compounds (stock solution in DMSO). In the assay without antioxidant, lipid oxidation was measured in the presence of the same level of DMSO. The rate of oxidation at 37°C was monitored by recording the increase in absorption at 234 nm caused by conjugated diene hydroperoxides (Table 5). Trolox was used as a standard.
Anti-lipid peroxidation activity. The water-soluble azo compound AAPH has been extensively used as a clean and controllable source of thermally produced alkyl peroxyl free radicals, through spontaneous thermal decomposition. […] In the AAPH assay, the highly reactive alkylperoxyl radicals are intercepted mainly by a hydrogen atom transfer (HAT) from the antioxidant.

soybean lipoxygenase = target: T1, soybean lipoxygenase (Glycine max, UniProt P08170); assay: Soybean lipoxygenase inhibition in vitro; format: biochemical; conditions: for %LOX @ 100μΜ: 100 μM compound
T1 construct: purchased Sigma Chemical, Co. (St. Louis, MO, USA)
T1 sequence (P08170 1-839): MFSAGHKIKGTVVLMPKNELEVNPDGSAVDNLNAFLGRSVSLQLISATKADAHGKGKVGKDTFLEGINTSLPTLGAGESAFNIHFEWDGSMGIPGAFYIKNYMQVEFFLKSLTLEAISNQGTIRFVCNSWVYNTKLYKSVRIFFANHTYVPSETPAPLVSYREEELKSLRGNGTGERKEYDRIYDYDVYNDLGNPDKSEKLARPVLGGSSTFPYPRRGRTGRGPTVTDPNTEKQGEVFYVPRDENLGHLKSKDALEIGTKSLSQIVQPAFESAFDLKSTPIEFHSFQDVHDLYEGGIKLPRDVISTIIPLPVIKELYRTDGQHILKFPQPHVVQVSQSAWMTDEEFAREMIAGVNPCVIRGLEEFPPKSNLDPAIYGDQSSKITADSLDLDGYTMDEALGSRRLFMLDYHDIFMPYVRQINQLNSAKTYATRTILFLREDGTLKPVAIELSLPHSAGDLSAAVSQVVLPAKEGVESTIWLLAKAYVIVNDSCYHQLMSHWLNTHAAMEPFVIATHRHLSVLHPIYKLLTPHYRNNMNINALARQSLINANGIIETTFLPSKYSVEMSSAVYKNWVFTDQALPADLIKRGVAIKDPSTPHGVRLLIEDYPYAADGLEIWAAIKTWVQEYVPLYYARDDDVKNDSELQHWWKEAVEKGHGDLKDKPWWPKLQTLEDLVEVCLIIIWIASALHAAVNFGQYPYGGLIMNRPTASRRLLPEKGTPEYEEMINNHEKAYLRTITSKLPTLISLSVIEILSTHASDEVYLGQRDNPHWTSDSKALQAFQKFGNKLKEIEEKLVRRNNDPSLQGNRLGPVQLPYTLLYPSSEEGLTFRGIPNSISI
Procedure: 2.2.2.4 Soybean lipoxygenase inhibition study in vitro [14]
In vitro study was evaluated as reported previously. The tested compounds dissolved in ethanol were incubated at room temperature with sodium linoleate (0.1 mM) and 0.2 ml of enzyme solution (1/9 x10^-4 w/v in saline). […] Several concentrations were used for the determination of IC50 values (Table 5).
LO is the key enzyme in leukotriene biosynthesis. Leukotrienes derived from the biotransformation of arachidonic acid catalyzed by 5-lipoxygenase (5-LO), are important inflammatory mediators implicated in several diseases. LOs play a role in membrane lipid peroxidation by forming hydroperoxides in the lipid bilayer. […] Most of the LO inhibitors are antioxidants or free radical scavengers, since lipoxygenation occurs via a carbon-centered radical. The evaluation of the novel coumarin hybrids against soybean lipoxygenase LO was accomplished by the UV-based enzyme assay.

[2] = target: T2, electric eel acetylcholinesterase (eeAChE) (Electrophorus electricus, UniProt O42275); assay: biochemical; format: biochemical; conditions: for inhibition at 10 µM: read-out: eeAChE % inhibn. @ 10 μΜ; for IC50: read-out: eeAChE IC50 μΜ
T2 construct: purchased Sigma
T2 sequence (O42275 24-633): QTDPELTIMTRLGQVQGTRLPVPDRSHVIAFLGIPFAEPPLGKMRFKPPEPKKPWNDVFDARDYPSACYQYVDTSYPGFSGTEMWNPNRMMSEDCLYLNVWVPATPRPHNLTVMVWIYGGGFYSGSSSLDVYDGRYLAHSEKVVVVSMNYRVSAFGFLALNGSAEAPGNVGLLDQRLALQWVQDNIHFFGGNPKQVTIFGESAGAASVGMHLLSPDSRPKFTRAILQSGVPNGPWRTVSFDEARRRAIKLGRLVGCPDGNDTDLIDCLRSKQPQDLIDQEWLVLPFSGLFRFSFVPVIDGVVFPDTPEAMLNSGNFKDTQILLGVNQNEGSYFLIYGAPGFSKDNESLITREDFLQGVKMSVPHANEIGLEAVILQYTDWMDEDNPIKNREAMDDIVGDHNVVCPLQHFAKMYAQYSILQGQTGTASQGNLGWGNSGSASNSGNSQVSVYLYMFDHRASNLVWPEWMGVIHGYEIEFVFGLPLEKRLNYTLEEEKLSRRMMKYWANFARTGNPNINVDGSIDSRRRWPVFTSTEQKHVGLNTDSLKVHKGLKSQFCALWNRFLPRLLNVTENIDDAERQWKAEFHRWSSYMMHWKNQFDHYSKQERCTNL
From the text: (§1) 2.2.2.5 Inhibition Study on ChEs in vitro
(§2) In vitro inhibition of electric eel acetylcholinesterase (eeAChE; 463 U/mg, Sigma) and equine serum butyrylcholinesterase (esBChE; 13 U/mg, Sigma) was investigated with a 96-well plate procedure based on the classical Ellman’s spectrophotometric test, as already described.

[3] = target: T3, equine serum butyrylcholinesterase (esBChE) (Equus caballus, UniProt P81908); assay: Inhibition of esBChE (Ellman's test); format: biochemical; conditions: for inhibition at 10 µM: read-out: esBChE % inhibn. @ 10 μΜ
T3 construct: purchased Sigma; host or cells: equine serum
T3 sequence (P81908 whole entry): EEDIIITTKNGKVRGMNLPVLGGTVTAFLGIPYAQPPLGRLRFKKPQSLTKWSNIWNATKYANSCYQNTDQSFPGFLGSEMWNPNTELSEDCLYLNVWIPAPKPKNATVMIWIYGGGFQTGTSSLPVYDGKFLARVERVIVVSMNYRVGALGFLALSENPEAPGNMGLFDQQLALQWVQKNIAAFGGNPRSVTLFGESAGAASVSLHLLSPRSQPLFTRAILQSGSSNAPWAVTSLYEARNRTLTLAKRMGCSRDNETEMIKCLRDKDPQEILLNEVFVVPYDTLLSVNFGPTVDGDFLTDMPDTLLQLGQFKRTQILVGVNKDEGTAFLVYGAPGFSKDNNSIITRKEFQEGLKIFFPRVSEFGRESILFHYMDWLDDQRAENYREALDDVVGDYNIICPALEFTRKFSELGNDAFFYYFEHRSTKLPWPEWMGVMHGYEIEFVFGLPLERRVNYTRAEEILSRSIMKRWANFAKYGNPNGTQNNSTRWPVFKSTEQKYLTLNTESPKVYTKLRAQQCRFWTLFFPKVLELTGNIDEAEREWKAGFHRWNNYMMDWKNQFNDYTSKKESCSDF
From the text: as §1, §2

rat monoamine oxidase A = target: T4, rat monoamine oxidase A (Rattus norvegicus, UniProt P21396); assay: Inhibition of MAO-A (spectrofluorimetric method); format: biochemical; conditions: 10 μM compound
T4 construct: from tissue
T4 sequence (P21396 1-526): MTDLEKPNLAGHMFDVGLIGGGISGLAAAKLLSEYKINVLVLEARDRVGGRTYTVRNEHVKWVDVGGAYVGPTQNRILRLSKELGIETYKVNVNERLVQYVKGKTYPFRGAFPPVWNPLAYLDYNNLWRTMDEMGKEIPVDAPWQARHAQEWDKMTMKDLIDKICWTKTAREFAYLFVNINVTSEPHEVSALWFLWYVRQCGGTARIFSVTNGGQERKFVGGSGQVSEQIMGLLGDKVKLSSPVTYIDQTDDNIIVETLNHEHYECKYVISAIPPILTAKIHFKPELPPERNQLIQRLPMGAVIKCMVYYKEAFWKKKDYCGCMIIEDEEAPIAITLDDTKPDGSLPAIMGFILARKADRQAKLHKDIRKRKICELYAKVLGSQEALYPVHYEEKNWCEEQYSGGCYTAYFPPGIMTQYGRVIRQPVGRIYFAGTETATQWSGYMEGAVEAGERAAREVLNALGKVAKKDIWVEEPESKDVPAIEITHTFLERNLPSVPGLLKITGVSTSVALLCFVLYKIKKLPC
From the text: (§3) 2.2.2.6 Inhibition Study on MAOs in vitro
(§4) Inhibition of rat monoamine oxidase A and B was studied by means of a spectrofluorimetric method as previously detailed.

rat monoamine oxidase B = target: T5, rat monoamine oxidase B (Rattus norvegicus, UniProt P19643); assay: Inhibition of MAO-B (spectrofluorimetric method); format: biochemical; conditions: 10 μM compound
T5 construct: from tissue
T5 sequence (P19643 1-520): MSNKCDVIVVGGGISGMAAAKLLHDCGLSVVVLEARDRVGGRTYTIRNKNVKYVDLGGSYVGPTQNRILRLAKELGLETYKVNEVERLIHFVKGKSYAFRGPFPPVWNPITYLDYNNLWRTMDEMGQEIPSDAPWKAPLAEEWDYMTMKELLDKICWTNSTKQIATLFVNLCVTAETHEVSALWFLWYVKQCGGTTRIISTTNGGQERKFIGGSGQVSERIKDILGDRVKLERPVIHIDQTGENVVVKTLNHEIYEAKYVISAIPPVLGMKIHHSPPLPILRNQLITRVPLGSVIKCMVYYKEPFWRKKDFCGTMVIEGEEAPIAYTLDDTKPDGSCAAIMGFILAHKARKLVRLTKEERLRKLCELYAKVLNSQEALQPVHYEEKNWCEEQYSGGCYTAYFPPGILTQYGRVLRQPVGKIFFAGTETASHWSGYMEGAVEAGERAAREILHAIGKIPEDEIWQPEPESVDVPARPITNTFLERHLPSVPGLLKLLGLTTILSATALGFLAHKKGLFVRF
From the text: as §3, §4

[4] = Reducing activity of the stable radical DPPH; conditions: 100 μM compound, after 20 min
Procedure: 2.2.2.1 Determination of the reducing activity of the stable radical 1, 1-diphenyl-picrylhydrazyl (DPPH)
To a solution of DPPH (100μM) in absolute ethanol an equal volume of the compounds dissolved in ethanol was added. As control solution ethanol was used. The concentration of the solutions of the compounds was 100μM. After 20 and 60 min at room temperature the absorbance was recorded at 517 nm (Table 5). NDGA was used as a standard.
The compounds were studied for their antioxidant activity by the use of the stable 2,2-diphenyl-1-picrylhydrazyl radical (DPPH) at concentration 0.1mM after 20 min. […] This purple colour generally disappears in the presence of an antioxidant. The reduction of absorbance is a measure of the free DPPH due to the action of the antioxidant. The antioxidant activity was expressed as the RA% (Reducing Activity). […] Within the group of derivatives 4 the presence of the morpholinyl or piperidinyl rings at position A as well as the carbonyl group at position B, hinder the interaction of the compounds to the free stable radical DPPH.

Structure (SMILES): Cc1cc(=O)oc2cc(OCC3=NOC(Cn4cnc5c(N6CCOCC6)ncnc54)C3)ccc12 (stereo not drawn) [11f]
- LP % @ 100μΜ (inhibition of lipid peroxidation) [1]: 48%
- %LOX @ 100μΜ (soybean lipoxygenase): no
- inhibition at 10 µM [2]: 43%
- inhibition at 10 µM [3]: 14%
- MAO-A (%) @ 10μΜ (rat monoamine oxidase A): 16%
- MAO-B (%) @ 10μΜ (rat monoamine oxidase B): 8%

Structure (SMILES): Cc1cc(=O)oc2ccc(OCc3cc(Cn4cnc5c(N6CCCCC6)ncnc54)no3)cc12 [13a, 4-methyl-6-({3-[(6-piperidin-1-yl-9H-purin-9-yl)methyl]isoxazol-5-yl}methoxy)-2H-chromen-2-one]
- RA% @ 100μΜ (reducing activity, DPPH) [4]: no
- %LOX @ 100μΜ (soybean lipoxygenase): no
- inhibition at 10 µM [2]: 40%
- inhibition at 10 µM [3]: 23%
- MAO-A (%) @ 10μΜ (rat monoamine oxidase A): 47%
- MAO-B (%) @ 10μΜ (rat monoamine oxidase B): 33%

Structure (SMILES): Cc1cc(=O)oc2ccc(OCc3cc(Cn4cnc5c(N6CCOCC6)ncnc54)no3)cc12 [13b]
- RA% @ 100μΜ (reducing activity, DPPH) [4]: no
- inhibition at 100 µM (soybean lipoxygenase; read-out: %LOX @ 100μΜ): 44%
- IC50 [2]: 3.1 µM
- inhibition at 10 µM [3]: 13%
- MAO-A (%) @ 10μΜ (rat monoamine oxidase A): 12%
- MAO-B (%) @ 10μΜ (rat monoamine oxidase B): no

Structure (SMILES): O=c1ccc2ccc(OCc3cc(Cn4cnc5c(N6CCCCC6)ncnc54)no3)cc2o1 [13e]
- RA% @ 100μΜ (reducing activity, DPPH) [4]: no
- IC50 (soybean lipoxygenase; read-out: LOX IC50 μΜ): 62.5 µM and 62 µM
- IC50 [2]: 1.73 µM
- IC50 ([3]; read-out: esBChE IC50 μΜ): 18 µM
- MAO-A (%) @ 10μΜ (rat monoamine oxidase A): 18%
- MAO-B (%) @ 10μΜ (rat monoamine oxidase B): 15%
